This note sets out measurements from article PMC7155755, “Binding of the Human 14-3-3 Isoforms to Distinct Sites in the Leucine-Rich Repeat Kinase 2” (Frontiers in Neuroscience, 2020).

The target in one experiment is T1, human 14-3-3γ (Homo sapiens, UniProt P61981).
T1 construct: MBP (cleaved yes); made in house; host or cells: E. coli BL21DE3
T1 sequence (P61981 1-247): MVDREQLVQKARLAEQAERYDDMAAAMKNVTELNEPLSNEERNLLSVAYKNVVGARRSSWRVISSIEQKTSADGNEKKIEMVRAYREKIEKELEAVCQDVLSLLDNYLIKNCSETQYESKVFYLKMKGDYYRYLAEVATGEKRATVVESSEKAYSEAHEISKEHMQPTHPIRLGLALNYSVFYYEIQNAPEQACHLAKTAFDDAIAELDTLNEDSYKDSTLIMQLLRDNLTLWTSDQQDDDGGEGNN
The experiment is described as follows: Fluorescence polarization (FP) direct binding assay. The following applies: fluorescein-labeled peptide 1 nM; for Binding to 14-3-3γ, in words: dilution series of 14-3-3γ (at least 5 μM down to pM), FP buffer pH 7; for Kd: 20 mM MOPS pH 7, 150 mM NaCl, 0.005% CHAPS, at least three independent measurements, read-out: Binding affinity (KD) toward 14-3-3 isoform γ. On the procedure:
(§1) Human MBP-tagged 14-3-3 isoforms were expressed from pMAL2CX plasmids [[Kilisch et al. (2016)], [Yuan et al. (2003)]] in E. coli BL21DE3 cells. After induction with […] isopropyl-β-D-thiogalactoside, the protein was expressed for 4 h at room temperature. Cells were lysed in MBP-lysis buffer [50 mM Tris–HCl pH 7.5, 150 mM NaCl, 5 mM MgCl2, 1 mM PMSF, 1× cOmplete Protease Inhibitor EDTA-free (Roche)] using a French Pressure cell (FRENCH Press, Thermo, United States). Following centrifugation at 42,000 × g and 4°C for 30 min, the supernatant was transferred to a Maltose-agarose column (1.5 ml bed volume; New England Biolabs GmbH, Germany). Captured proteins were washed six times with 10 ml wash buffer (50 mM Tris–HCl pH 7.5, 150 mM NaCl, 5 mM MgCl2) prior to elution using wash buffer including 15 mM D-maltose. To remove the MBP tag, fusion proteins were incubated with Factor Xa (New England Biolabs GmbH, Germany), at a final concentration of 0.4 μg per 1 mg fusion protein for 24 h at RT following another 72 h at 4°C. Anion exchange chromatography was finally applied to separate residual MBP using a buffer gradient from 20 mM Tris pH 8 to 20 mM Tris pH 8 with 1 M NaCl. For this a RESOURCE Q column (GE Healthcare, United Kingdom) was utilized, employing an ÄKTApurifier (GE Healthcare, United Kingdom) or an NGC Quest Chromatography System (Bio-Rad Laboratories GmbH, Germany).
(§2) FP was used to determine binding affinities of different phosphorylated and non-phosphorylated peptides derived from LRRK2 sequences (Peps4LS GmbH, Germany) toward human 14-3-3 isoforms. Direct binding assays were performed and evaluated as previously described ([Muda et al., 2014]; [Manschwetus et al., 2019]). Briefly, both dilution series of 14-3-3 isoforms ranging from final concentrations of at least 5 μM down to picomolar concentrations and dilutions of the respective fluorescein-labeled peptide (final conc. 1 nM) were prepared in FP buffer (20 mM MOPS pH 7, 150 mM NaCl, 0.005% CHAPS). Subsequently, samples were mixed in 384-well microtiter plates as duplicates (BRAND plates, pureGrade, black, BRAND GmbH & Co. KG, Germany) in a 1:1 ratio and measured using a CLARIOstar plate reader (BMG LABTECH, Germany). Two protein preparations were utilized for at least two independent replications for all measurements while high affinity binding peptides were particularly measured with a minimum of three independent replications for statistical evaluation. Data was analyzed with GraphPad Prism 6.0 (GraphPad Software, San Diego, CA, United States) by plotting obtained FP signals (mPol) against the logarithmic 14-3-3 protein concentrations. Data points represent means ± standard error of mean (SEM) of duplicates. “Ctrl.” indicates the FP signal of fluorescein-labeled peptides without 14-3-3 protein. Sigmoidal dose-response fitting was performed to define KD-values.
A general note: Fluorescence polarisation rises when a labelled molecule tumbles more slowly, as on binding a larger partner.

In experiment [1] the test system is all seven human 14-3-3 isoforms. Description: Fluorescence polarization (FP) direct binding assay, statements over all isoforms. The following applies: for Binding to the human 14-3-3 isoforms, in words: FP direct binding, all seven isoforms, fluorescein-labeled peptide 1 nM, FP buffer pH 7. The method, then: as §1, §2
The next experiment addresses T2, R1441C/pS1444 (R1441C (stands in the printed letters)).
T2 construct: LRRK2-derived peptide of the Roc domain with the familial PD mutation R1441C, phosphorylated at S1444; source: synthetic peptide (Peps4LS GmbH)
T2 peptide: fluorescein-LFNIKACAS[pS]SPVILVGT
Description: fluorescence polarisation; direct binding; dilution series of 14-3-3 isoform (at least 5 μM down to picomolar) mixed with 1 nM fluorescein-labelled peptide; 20 mM MOPS pH 7, 150 mM NaCl, 0.005% CHAPS; 384-well plates. The following applies: both partners purified.

For another experiment, the target named is pS1444. The experiment is described as above.

“Also recorded” adds a separate entry of the source. Square brackets hold non-standard residues; d marks the D form. Primed or numbered codes have the meaning given here. Ends that are not written are not given here. fluorescein″ = fluorescein label on the N-terminus; fluorescein = N-terminal fluorescein label; pS = N[C@@H](COP(=O)(O)O)C(=O)O

With “LFNIKACASpSSPVILVGT [R1441C/pS1444, fluorescein-labeled LRRK2 Roc domain peptide with R1441C and pS1444]”, the “Binding to 14-3-3γ, in words” value at human 14-3-3γ is given as “micromolar affinities; also recorded: strongly decreased the nanomolar affinity of pS1444 alone”. Moreover, the “Binding to the human 14-3-3 isoforms, in words” value in experiment [1] was “affinities in the micromolar range”. In addition, the “Factor by which the mutation R1441C decreases the affinity to all 14-3-3 isoforms” value in experiment [1] (FP, R1441C/pS1444 compared with pS1444) is recorded as ≥ 30.

Turning to “LFNIKARASSSPVILVGT [S1443/S1444, fluorescein-labeled non-phosphorylated LRRK2 Roc domain peptide covering S1443 and S1444]”, in experiment [1], the “Binding to the human 14-3-3 isoforms, in words” value is on record as “no detectable binding”.

In the case of “KKSNpSISVGEFYRDAVLQRCSPNLQRHSNSLGPIF [pS910/S935, fluorescein-labeled LRRK2-derived 35-mer singly phosphorylated at S910]”, at human 14-3-3γ, the “Binding to 14-3-3γ, in words” value is reported as “only weak interactions”. Moreover, the “Binding to the human 14-3-3 isoforms, in words” value in experiment [1] is “no isoform specificity could be distinguished”.

With “KKSNSISVGEFYRDAVLQRCSPNLQRHSNpSLGPIF [S910/pS935, fluorescein-labeled LRRK2-derived 35-mer singly phosphorylated at S935]”, the “Binding to 14-3-3γ, in words” value on human 14-3-3γ is “only weak interactions”. Moreover, the “Binding to the human 14-3-3 isoforms, in words” value in experiment [1] is given as “no isoform specificity could be distinguished”.

With “LFNIKARApSSSPVILVGT [pS1443, fluorescein-labeled LRRK2 Roc domain phosphopeptide, pS1443]”, the “Binding to 14-3-3γ, in words” value on human 14-3-3γ was “did not allow for binding”. In experiment [1], the “Binding to the human 14-3-3 isoforms, in words” value is given as “no detectable binding; also recorded: not demonstrated for any isoform”.

Regarding “LFNIKACASSSPVILVGT [R1441C, fluorescein-labeled non-phosphorylated LRRK2 Roc domain peptide with mutation R1441C]”, the “Binding to 14-3-3γ, in words” value at human 14-3-3γ was “did not bind; also recorded: no binding”. Besides, the “Binding to the human 14-3-3 isoforms, in words” value in experiment [1] is given as “did not bind any of the 14-3-3 isoforms”.

For the molecule “RCSPNLRRHSNSLGPIFDH [Q930R, fluorescein-labeled non-phosphorylated LRRK2-derived peptide with mutation Q930R]”, the “Binding to 14-3-3γ, in words” value at human 14-3-3γ is “neither the Q930R mutation nor the additional phosphorylation in pS933 could induce binding”.

Consider “RCSPNLRRHpSNSLGPIFDH [Q930R/pS933, fluorescein-labeled LRRK2-derived peptide with mutation Q930R and pS933]”, for which, in experiment [1], the “Binding to the human 14-3-3 isoforms, in words” value was “no 14-3-3 binding was detectable”.

A word on the Kd: it is the concentration at which binding is half-saturated. For the molecule `CC[C@H](C)[C@H](NC(=O)[C@H](COP(=O)(O)O)NC(=O)[C@H](CC(N)=O)NC(=O)[C@H](CO)NC(=O)[C@H](CCCCN)NC(=O)[C@@H](N)CCCCN)C(=O)N[C@@H](CO)C(=O)N[C@H](C(=O)NCC(=O)N[C@@H](CCC(=O)O)C(=O)N[C@@H](Cc1ccccc1)C(=O)N[C@@H](Cc1ccc(O)cc1)C(=O)N[C@@H](CCCNC(=N)N)C(=O)N[C@@H](CC(=O)O)C(=O)N[C@@H](C)C(=O)N[C@H](C(=O)N[C@@H](CC(C)C)C(=O)N[C@@H](CCC(N)=O)C(=O)N[C@@H](CCCNC(=N)N)C(=O)N[C@@H](CS)C(=O)N[C@@H](CO)C(=O)N1CCC[C@H]1C(=O)N[C@@H](CC(N)=O)C(=O)N[C@@H](CC(C)C)C(=O)N[C@@H](CCC(N)=O)C(=O)N[C@@H](CCCNC(=N)N)C(=O)N[C@@H](Cc1c[nH]cn1)C(=O)N[C@@H](CO)C(=O)N[C@@H](CC(N)=O)C(=O)N[C@@H](COP(=O)(O)O)C(=O)N[C@@H](CC(C)C)C(=O)NCC(=O)N1CCC[C@H]1C(=O)N[C@H](C(=O)N[C@@H](Cc1ccccc1)C(=O)O)[C@@H](C)CC)C(C)C)C(C)C` [pS910/pS935], the Kd on human 14-3-3γ amounted to 3.2 ± 0.5 nM.

For “SPNLQRHSNpSLGPIF [pS935, fluorescein-labeled LRRK2-derived phosphopeptide covering pS935]”, on human 14-3-3γ, the “Binding to 14-3-3γ, in words” value is on record as “did not bind; also recorded: no binding was detected”. In addition, the “Binding to the human 14-3-3 isoforms, in words” value in experiment [1] was “no binding could be detected; also recorded: could not detect binding; also recorded: non-binding”.

For “RCSPNLQRHpSNSLGPIFDH [pS933, fluorescein-labeled LRRK2-derived phosphopeptide covering pS933]”, on human 14-3-3γ, the “Binding to 14-3-3γ, in words” value was “neither the Q930R mutation nor the additional phosphorylation in pS933 could induce binding”. Moreover, in experiment [1], the “Binding to the human 14-3-3 isoforms, in words” value was “no 14-3-3 binding was detectable”.

With “KKSN SISVGEFYRDAVLQRCSPNLQRHSNSLGPIF ({fluorescein″}-KKSNSISVGEFYRDAVLQRCSPNLQRHSNSLGPIF) [S910/S935, fluorescein-labeled non-phosphorylated LRRK2-derived 35-mer encompassing S910 and S935]”, the “Binding to 14-3-3γ, in words” value with human 14-3-3γ is reported as “did not bind”.

Take `CC[C@H](C)[C@H](NC(=O)[C@@H]1CCCN1C(=O)CNC(=O)[C@H](CC(C)C)NC(=O)[C@H](COP(=O)(O)O)NC(=O)[C@H](CC(N)=O)NC(=O)[C@H](CO)NC(=O)[C@H](Cc1c[nH]cn1)NC(=O)[C@H](CCCNC(=N)N)NC(=O)[C@H](CCCNC(=N)N)NC(=O)[C@H](CC(C)C)NC(=O)[C@H](CC(N)=O)NC(=O)[C@@H]1CCCN1C(=O)[C@H](CO)NC(=O)[C@H](CS)NC(=O)[C@@H](N)CCCNC(=N)N)C(=O)N[C@@H](Cc1ccccc1)C(=O)N[C@@H](CC(=O)O)C(=O)N[C@@H](Cc1c[nH]cn1)C(=O)O` [Q930R/pS935]: the Kd at human 14-3-3γ was 11.1 ± 10.7 nM.

B1: human 14-3-3 isoform ε (recombinant, MBP tag removed) (natural protein, UniProt P62258 1-255, looked up)
chain: MDDREDLVYQAKLAEQAERYDEMVESMKKVAGMDVELTVEERNLLSVAYKNVIGARRASWRIISSIEQKEENKGGEDKLKMIREYRQMVETELKLICCDILDVLDKHLIPAANTGESKVFYYKMKGDYHRYLAEFATGNDRKEAAENSLVAYKAASDIAMTELPPTHPIRLGLALNFSVFYYEILNSPDRACRLAKAAFDDAIAELDTLSEESYKDSTLIMQLLRDNLTLWTSDMQGDGEEQNKEALQDVEDENQ
notes: 14-3-3 epsilon, human; Expressed from pMAL2CX plasmids; also called 14-3-3ε; source: E. coli BL21DE3, purified (maltose-agarose, Factor Xa, anion exchange)
Turning to B1, the “fold decrease in affinity against pS1444” value in the experiment with R1441C/pS1444 is ≥ 30 fold. Moreover, the Kd in the experiment with pS1444 is > 1000 nM.

B2: human 14-3-3 isoform β (recombinant, MBP tag removed) (natural protein, UniProt P31946 1-246, looked up)
chain: MTMDKSELVQKAKLAEQAERYDDMAAAMKAVTEQGHELSNEERNLLSVAYKNVVGARRSSWRVISSIEQKTERNEKKQQMGKEYREKIEAELQDICNDVLELLDKYLIPNATQPESKVFYLKMKGDYFRYLSEVASGDNKQTTVSNSQQAYQEAFEISKKEMQPTHPIRLGLALNFSVFYYEILNSPEKACSLAKTAFDEAIAELDTLNEESYKDSTLIMQLLRDNLTLWTSENQGDEGDAGEGEN
notes: 14-3-3 beta, human; Expressed from pMAL2CX plasmids; also called 14-3-3β; source: E. coli BL21DE3, purified (maltose-agarose, Factor Xa, anion exchange)
Consider B2, for which the “fold decrease in affinity against pS1444” value with R1441C/pS1444 was ≥ 30 fold. This molecule also yielded a dissociation constant (Kd) with pS1444 of 183 nM.
